Assay results: ChEMBL document CHEMBL4715830, “Design, synthesis and biological evaluation of suramin-derived dual antagonists of the proinflammatory G protein-coupled receptors P2Y and GPR17” (Eur J Med Chem, 2020)
The source made the active and inactive calls.

Legend:
[1] = target: P2Y purinoceptor 1 (Homo sapiens) (UniProt P47900); experiment: (§1) Antagonist activity at human P2Y1 receptor expressed in human 1321N1 cells assessed as inhibition of ADP-induced intracellular calcium influx at 10 uM preincubated for 20 mins followed by ADP addition measured at 0.4 secs interval for 60 times by Oregon Green BAPTA-1/AM dye-based fluorescence assay; assay type: functional, cell-based
[2] = target: P2Y purinoceptor 4 (Homo sapiens) (UniProt P51582); experiment: as §1, with “P2Y4” for “P2Y1”, “UTP-induced” for “ADP-induced”, “10 to 100” for “10”, “UTP” for “ADP”; assay type: functional, cell-based; details: dose 10-100 µM
[3] = target: T1, P2Y purinoceptor 14 (Homo sapiens) (UniProt Q15391); experiment: Antagonist activity at recombinant human Gi/Go-coupled GP2Y14 receptor expressed in CHOK1 cells assessed as inhibition of […]-induced inhibition of beta-arrestin recruitment at 10 uM by pathhunter assay; assay type: cell-based
T1 sequence (whole entry): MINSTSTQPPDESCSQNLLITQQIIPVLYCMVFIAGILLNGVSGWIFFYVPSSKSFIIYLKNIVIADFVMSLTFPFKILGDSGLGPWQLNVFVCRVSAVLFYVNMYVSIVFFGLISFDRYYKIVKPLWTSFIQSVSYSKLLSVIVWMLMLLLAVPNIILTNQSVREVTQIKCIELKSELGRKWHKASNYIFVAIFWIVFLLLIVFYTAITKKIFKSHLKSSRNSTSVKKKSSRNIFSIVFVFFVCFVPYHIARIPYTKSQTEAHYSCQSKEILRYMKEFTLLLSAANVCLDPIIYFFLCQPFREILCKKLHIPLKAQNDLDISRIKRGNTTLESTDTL

[4] = target: P2Y purinoceptor 12 (Homo sapiens) (UniProt Q9H244); experiment: Antagonist activity at recombinant human Gi/Go-coupled GP2Y12 receptor expressed in CHOK1 cells assessed as inhibition of 2-(Methylthio)ADP-induced inhibition of beta-arrestin recruitment at 10 uM by pathhunter assay; assay type: cell-based; details: CHO-K1
[5] = target: P2Y purinoceptor 6 (Rattus norvegicus) (UniProt Q63371); experiment: as §1, with “rat P2Y6” for “human P2Y1”, “UDP-induced” for “ADP-induced”, “10 to 100” for “10”, “UDP” for “ADP”; assay type: functional, cell-based; details: dose 10-100 µM

Measured: inhibition

Chain of P2Y purinoceptor 4 (Homo sapiens) (P51582 whole entry): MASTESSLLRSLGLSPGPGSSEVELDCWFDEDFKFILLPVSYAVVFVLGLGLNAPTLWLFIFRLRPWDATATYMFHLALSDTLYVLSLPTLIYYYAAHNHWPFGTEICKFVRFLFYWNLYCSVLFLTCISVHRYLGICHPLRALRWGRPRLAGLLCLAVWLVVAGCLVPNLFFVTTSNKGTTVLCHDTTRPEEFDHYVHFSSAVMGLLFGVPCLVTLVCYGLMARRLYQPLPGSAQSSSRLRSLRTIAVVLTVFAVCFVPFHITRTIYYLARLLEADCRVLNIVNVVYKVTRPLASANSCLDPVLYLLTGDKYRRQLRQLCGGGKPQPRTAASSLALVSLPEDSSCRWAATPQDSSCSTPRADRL
Chain of P2Y purinoceptor 12 (Homo sapiens) (Q9H244 whole entry): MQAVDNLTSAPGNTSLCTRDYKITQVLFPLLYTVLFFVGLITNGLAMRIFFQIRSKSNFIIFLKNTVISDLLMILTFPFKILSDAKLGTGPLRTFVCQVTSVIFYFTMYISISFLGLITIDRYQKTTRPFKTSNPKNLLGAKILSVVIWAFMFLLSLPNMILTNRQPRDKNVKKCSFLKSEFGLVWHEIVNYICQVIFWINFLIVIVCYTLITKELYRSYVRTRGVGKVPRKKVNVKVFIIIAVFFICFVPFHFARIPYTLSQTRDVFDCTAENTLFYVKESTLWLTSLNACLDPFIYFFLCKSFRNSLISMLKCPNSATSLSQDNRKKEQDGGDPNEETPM
Chain of P2Y purinoceptor 1 (Homo sapiens) (P47900 whole entry): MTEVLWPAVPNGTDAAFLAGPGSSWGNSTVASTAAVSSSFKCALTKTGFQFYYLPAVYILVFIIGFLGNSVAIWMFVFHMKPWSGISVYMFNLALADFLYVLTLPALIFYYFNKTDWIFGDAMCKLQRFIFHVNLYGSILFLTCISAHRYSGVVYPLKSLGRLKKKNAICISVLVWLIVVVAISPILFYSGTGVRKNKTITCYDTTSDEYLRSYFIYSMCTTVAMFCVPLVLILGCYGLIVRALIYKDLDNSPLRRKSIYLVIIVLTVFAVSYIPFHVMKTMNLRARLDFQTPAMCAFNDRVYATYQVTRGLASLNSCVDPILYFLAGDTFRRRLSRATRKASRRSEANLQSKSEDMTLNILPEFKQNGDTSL
Chain of P2Y purinoceptor 6 (Rattus norvegicus) (Q63371 whole entry): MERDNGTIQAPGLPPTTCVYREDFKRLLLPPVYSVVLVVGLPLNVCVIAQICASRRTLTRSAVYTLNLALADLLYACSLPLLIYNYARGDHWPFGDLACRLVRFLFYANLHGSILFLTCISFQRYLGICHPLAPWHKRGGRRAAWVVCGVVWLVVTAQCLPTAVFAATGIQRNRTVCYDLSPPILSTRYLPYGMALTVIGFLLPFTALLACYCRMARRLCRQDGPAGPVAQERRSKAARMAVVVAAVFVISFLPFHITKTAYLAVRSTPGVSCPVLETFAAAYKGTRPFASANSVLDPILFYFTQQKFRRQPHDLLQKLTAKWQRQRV

Cc1cccc(C(=O)Nc2ccc(S(=O)(=O)Oc3ccc([N+](=O)[O-])cc3)cc2)c1
inactive: all assays above

COc1cccc(C(=O)Nc2ccc(S(=O)(=O)Oc3cccc([N+](=O)[O-])c3)cc2)c1
inactive: all assays above

O=C(Nc1ccc(S(=O)(=O)Oc2cccc([N+](=O)[O-])c2)cc1)c1cccc(Cl)c1
inactive: all assays above

O=C(Nc1cccc(S(=O)(=O)Oc2cccc([N+](=O)[O-])c2)c1)c1ccc(Cl)cc1
inactive: all assays above

Cc1cccc(NC(=O)c2ccc(NC(=O)c3ccc([N+](=O)[O-])cc3)cc2)c1
inactive: all assays above

O=C(Nc1ccc(S(=O)(=O)Oc2cccc([N+](=O)[O-])c2)cc1)c1cccc(Br)c1
inactive: all assays above

Cc1cccc(C(=O)Nc2ccc(NC(=O)Nc3cccc(C(=O)O)c3)cc2)c1
inactive: all assays above

Cc1cccc(C(=O)Nc2cccc(NC(=O)Nc3cccc(C(=O)O)c3)c2)c1
inactive: all assays above

O=C(Nc1cccc(S(=O)(=O)Oc2cccc([N+](=O)[O-])c2)c1)c1cccc(F)c1
inactive: all assays above

Cc1cccc(C(=O)Nc2cccc(NC(=O)c3cccc([N+](=O)[O-])c3)c2)c1
inactive: all assays above

O=C(Nc1ccc(S(=O)(=O)Oc2cccc([N+](=O)[O-])c2)cc1)c1ccccc1
inactive: all assays above

Cc1cccc(NC(=O)c2cccc(NC(=O)c3ccc([N+](=O)[O-])cc3)c2)c1
inactive: all assays above

CCC(=O)c1cccc(C(=O)Nc2ccc(S(=O)(=O)Oc3cccc([N+](=O)[O-])c3)cc2)c1
inactive: all assays above

COC(=O)c1cccc(NC(=O)Nc2ccc(NC(=O)c3cccc(C)c3)cc2)c1
inactive: all assays above

Cc1cccc(C(=O)Nc2cccc(S(=O)(=O)Oc3cccc([N+](=O)[O-])c3)c2)c1
inactive: all assays above

Cc1cccc(C(=O)Nc2ccc(S(=O)(=O)NCc3cccc(Cl)c3)cc2)c1
inactive: all assays above

Cc1cccc(NC(=O)c2ccc(NC(=O)c3cccc([N+](=O)[O-])c3)cc2)c1
inactive: all assays above

O=C(Nc1ccc(S(=O)(=O)Oc2cccc([N+](=O)[O-])c2)cc1)c1cccc(C(F)(F)F)c1
inactive: all assays above

Cc1cccc(C(=O)Nc2ccc(NC(=O)c3cccc([N+](=O)[O-])c3)cc2)c1
inactive: all assays above

O=C(Nc1ccc(S(=O)(=O)Oc2cccc([N+](=O)[O-])c2)cc1)c1ccc(Cl)c(Cl)c1
inactive: all assays above

O=C(Nc1cccc(S(=O)(=O)Oc2cccc([N+](=O)[O-])c2)c1)c1cccc(Cl)c1
inactive: all assays above

Cc1cccc(NC(=O)c2cccc(NC(=O)c3cccc([N+](=O)[O-])c3)c2)c1
inactive: all assays above

O=C(Nc1ccc(S(=O)(=O)Oc2cccc([N+](=O)[O-])c2)cc1)c1ccc(Cl)cc1
inactive: all assays above

Cc1cccc(C(=O)Nc2ccc(NC(=O)c3ccc([N+](=O)[O-])cc3)cc2)c1
inactive: all assays above

Cc1ccc(C(=O)Nc2ccc(S(=O)(=O)Oc3cccc([N+](=O)[O-])c3)cc2)cc1
inactive: all assays above

Cc1cccc(C(=O)Nc2cccc(NC(=O)c3ccc([N+](=O)[O-])cc3)c2)c1
inactive: all assays above

Cc1cccc(NC(=O)c2cccc(NC(=O)Nc3cccc(C(=O)O)c3)c2)c1
inactive: all assays above

COC(=O)c1cccc(NC(=O)Nc2cccc(NC(=O)c3cccc(C)c3)c2)c1
inactive: all assays above

O=C(Nc1ccc(S(=O)(=O)Oc2cccc([N+](=O)[O-])c2)cc1)c1cccc(F)c1
inactive: all assays above
